# In patent US11780934B2, “Use of inhibitors of ADAM12 as adjuvants in tumor therapies” (INSTITUT PASTEUR, priority 2016, dated 2023):
# Entries after “also recorded” stand apart in the source; their conditions may differ.
# Tested on: ADAM12+ CAFs
# Assay: Depletion of ADAM12+ CAFs by diphtheria toxin in M12-DTR mice bearing murine melanoma (MO5)
# Format: in vivo, mouse
# [1] = M12-DTR+DT vs tumors with normal stroma, melanoma
substance,measurement,setting,value
diphtheria toxin [DT],depletion of ADAM12+ CAFs,"M12-DTR mice, DT ip starting at day 9 or 10 after melanoma cell inoculation",specifically depleted
same,density of CD31+ vessels inside the tumors,"M12-DTR+DT vs control (DTR negative) mice, melanoma, immunofluorescence, two or three weeks after inoculation",higher density
same,tumor perfusion (positive area of Hoechst 33342 staining),"M12-DTR+DT vs control mice, melanoma, Hoechst 33342 iv",increased perfusion
same,activation of CD31+ vessels (ICAM1+),"M12-DTR+DT vs control mice, melanoma, immunofluorescence",activated ICAM1+ phenotype
same,tumor growth,"M12-DTR+DT vs mice with normal tumor stroma, murine melanoma model",significantly delayed; also recorded: decrease in tumor growth
same,frequency of CD3+ T cells in tumor,[1],significantly higher frequency; also recorded: higher T cells (CD3+) infiltration
same,percentage of myeloid-derived suppressor cells (MDSC) and T-regulator cells (Tregs),[1],remained unchanged
same,ratio of M1/M2 macrophages,[1],increased ratio
same,location of CD3+ T cells in tumor,"M12-DTR+DT vs tumors with normal stroma, melanoma, histology",recruited to the core of the tumor
